Assay results reported in patent US20210186978A1, “COMBINATION THERAPY” (TARVEDA THERAPEUTICS, INC., priority 2018, published 2021).

Experiments:
[1] = system: NCI-H69 tumors (small cell lung cancer); test: Low doses of Conjugate 1 with Vorinostat, same-day start or pre-treatment, in NCI-H69 model; format: in vivo; details: mice
Procedure: In a further study with NCI-H69 model (small cell lung cancer), low doses of Conjugate 1 were given to tumor bearing mice and tumor regression was tracked. 1/3 MTD of Conjugate 1 is 0.7 mpk. 1/6 MTD of Conjugate 1 is 0.35 mpk.
Mice bearing NCI-H69 tumors were treated with a combination of Vorinostat and Conjugate 1 starting on the same day or pre-treated with Vorinostat for 4 days IP then administered low doses of Conjugate 1. In total, mice received 10 total doses of Vorinostat (q.d×5) and 2 doses of Conjugate 1 (q.w.×2).
. No significant body weight loss was observed during these studies. […]

[2] = Conjugate 1 tumor uptake with Vorinostat pre-treatment; format: in vivo, mice bearing NCI-H69 tumors; details: Vorinostat pre-treatment vs none; P=0.03
Procedure: In vivo, mice bearing NCI-H69 tumors were pre-treated with Vorinostat then administered Conjugate 1. Tumors were analyzed for Conjugate 1 concentrations.

[3] = system: NCI-H727 (lung carcinoid) xenograft; test: Conjugate 1 and Vorinostat combination in NCI-H727 xenograft model; format: in vivo, mice; details: very low SSTR2 (IRS 1)
[4] = system: xenograft models that over-express SSTR2; test: Preclinical single agent studies in xenograft models that over-express SSTR2; format: in vivo; details: single agent Conjugate 1 treatment
Excerpt: The targeting peptide of Conjugate 1 selectively binds to SSTR2, triggers receptor internalization leading to the accumulation of the DM1 to provide antitumor activity by disrupting microtubule networks causing apoptosis and mitotic catastrophe.

NCI-H69 cells = test: Conjugate 1 potency in vitro with and without Vorinostat pre-treatment; format: cell-based
Procedure: In a further study, whether increased SSTR2 expression would result in better delivery of Conjugate 1 to small cell lung cancer cells (NCI-H69) was evaluated. Conjugate 1 potency with Vorinostat pre-treatment was compared with Conjugate 1 potency without Vorinostat pre-treatment. […].

SSTR2 = SSTR2 expression by IHC after Vorinostat treatment; format: in vivo, mice bearing NCI-H69 tumors
Procedure: Mice bearing NCI-H69 tumors (small cell lung cancer) were treated with Vorinostat for 10 days IP (q.d.×5). Tumors were collected and processed for SSTR2 expression by IHC.
On Day 6 the IRS score doubled from 6 in the vehicle to 12 in the treated group. The immunoreactive score (IRS) is determined by multiplying the staining intensity in four gradations with the percentage of positive cells in five gradations.

SMILES	1/3 MTD [1]	1/6 MTD [1]	Conjugate 1 concentrations in tumors [2]	activity as a single agent [3]	tumor regression [4]	Conjugate 1 potency (NCI-H69 cells; with Vorinostat pre-treatment vs without, NCI-H69 cells in vitro)	NCI-H69 cell proliferation (NCI-H69 cells; Vorinostat alone)	IRS score (SSTR2 expression in tumors) (SSTR2; NCI-H69 tumors, Day 6, Vorinostat IP q.d.x5, vehicle 6)	SSTR2 expression in normal spleen tissues (SSTR2; normal spleen after Vorinostat treatment)
COc1cc2cc(c1Cl)N(C)C(=O)C[C@H](OC(=O)[C@H](C)N(C)C(=O)CCSSC[C@H](NC(=O)[C@@H]1CSSC[C@H](NC(=O)[C@H](N)Cc3ccccc3)C(=O)N[C@@H](Cc3ccc(O)cc3)C(=O)N[C@H](Cc3c[nH]c4ccccc34)C(=O)N[C@@H](CCCCN)C(=O)N[C@@H]([C@@H](C)O)C(=O)N1)C(N)=O)C[C@]1(C)O[C@H]1[C@H](C)[C@@H]1C[C@@](O)(NC(=O)O1)[C@H](OC)C/C=C/C=C(\C)C2 [Conjugate 1]	0.7 mpk	0.35 mpk	statistically significant (P=0.03) increase	no activity	complete and sustained tumor regression	an increase in Conjugate 1 potency was observed	–	–	–
O=C(CCCCCCC(=O)Nc1ccccc1)NO [Vorinostat, vorinostat]	–	–	–	–	–	–	no effect	12	an increase in expression was not observed
